# Laboratory results: article PMC11350809, “Targeting N-Acetylglucosaminidase in Staphylococcus aureus with Iminosugar Inhibitors” (Antibiotics, 2024)
# Where two headings read alike, the source gives them in different places.
# Legend:
# [1] = test system: E. coli (ATCC 25922); assay: Minimal inhibitory concentration, broth microdilution (negative control strain); type: cell-based; details: Escherichia coli, ATCC25922
# Protocol: (§1) The minimal inhibitory concentrations (MICs) were determined against the bacterial strains S. aureus (ATCC 29213) and E. coli (ATCC 25922), and the results are presented in Table S6.
# (§2) Antimicrobial testing was carried out by the broth microdilution method in a 96-well plate format following the CLSI guidelines and European Committee for Antimicrobial Susceptibility Testing (EUCAST) recommendations. Bacterial suspension of a specific bacterial strain equivalent to 0.5 McFarland turbidity standard was diluted with cation-adjusted Mueller Hinton broth to obtain a final inoculum of 10^5 CFU/mL. Compounds dissolved in 20% DMSO and inoculum were mixed together and incubated for 20 h at 35 °C. After incubation, the minimal inhibitory concentration (MIC) values were determined by visual inspection as the lowest dilution of compounds showing no turbidity. The MICs were determined against S. aureus (ATCC 29213) and E. coli (ATCC 25922) bacterial strains. Tetracycline was used as a positive control on every assay plate, showing MICs of 0.5 µg/mL and 1 µg/mL for S. aureus and E. coli, respectively.
# [2] = molecular target: human recombinant β-glucocerebrosidase (GBA); details: cited from earlier work
# [3] = molecular target: α-Galactosidase (from green coffee beans); details: cited from earlier work
# [4] = molecular target: β-Glucosidase (from almond); details: cited from earlier work
# [5] = molecular target: β-Galactosidase (from bovine liver); details: cited from earlier work
# [6] = molecular target: naringinase (Nar); details: cited from earlier work
# [7] = molecular target: β-galactocerebrosidase (GALC); details: cited from earlier work
# [8] = molecular target: α-Glucosidase (from baker's yeast); details: cited from earlier work
# [9] = test system: S. aureus (ATCC 29213); assay: Minimal inhibitory concentration, broth microdilution; type: cell-based, Staphylococcus aureus; details: for MIC: Staphylococcus aureus, ATCC29213; for antibacterial activity against S. aureus ATCC 29213: in words
# Protocol: as §1, §2
# [10] = broth microdilution, 20 h at 35 °C, read-out: MIC E. coli ATCC25922
# [11] = pH 5.2, footnote **, read-out: IC50 GBA pH 5.2
# [12] = pH 7.0, footnote **, read-out: IC50 GBA pH 7.0
# [13] = pH 6.8, p-nitrophenyl-a-d-galactopyranoside, footnote **
# [14] = pH 5.0, p-nitrophenyl-b-d-glucopyranoside, footnote **
# [15] = pH 7.2, p-nitrophenyl-a-d-glucopyranoside, footnote **
# [16] = broth microdilution, 20 h at 35 °C, read-out: MIC S. aureus ATCC29213
# [17] = pH 5.2, footnote *, read-out: IC50 GBA pH 5.2
# [18] = pH 7.0, footnote *, read-out: IC50 GBA pH 7.0
# [19] = pH 6.8, p-nitrophenyl-α-D-galactopyranoside, footnote *
# [20] = pH 5.0, p-nitrophenyl-β-D-glucopyranoside, footnote *
# [21] = pH 7.2, p-nitrophenyl-α-D-glucopyranoside, footnote *
# [22] = pH 6.8, p-nitrophenyl-α-D-galactopyranoside, footnote ***
# [23] = pH 5.0, p-nitrophenyl-β-D-glucopyranoside, footnote ***
# [24] = pH 7.2, p-nitrophenyl-α-D-glucopyranoside, footnote ***
# [25] = pH 5.2, footnote ***, read-out: IC50 GBA pH 5.2
# [26] = pH 7.0, footnote ***, read-out: IC50 GBA pH 7.0
smiles,measurement,setting,value
CCCCCCCCCCN(CCCCCCCCCC)C(=O)CNC(=N)N1CC(O)C(O)C(O)C1 (stereo not shown) [Compound 6],MIC,[1]; [10],500 µM
same,IC50,[2]; [11],0.04 ± 0.01 µM
same,IC50,[2]; [12],0.02 ± 0.001 µM
same,IC50,[3]; [13],> 100 µM
same,IC50,[4]; [14],> 100 µM
same,IC50,[5]; footnote **,11.6 ± 4 µM
same,IC50,[6]; footnote **,3.9 ± 0.6 µM
same,IC50,[7]; footnote **,> 10 µM
same,IC50,[8]; [15],> 100 µM
same,MIC,[9]; [16],≤ 4 µM
same,antibacterial activity against S. aureus ATCC 29213,[9],modest antibacterial activities
CCCCCCCCCCCCCCNC(=N)N1CC(O)C(O)C(O)C1 (stereo not shown) [Compound 5],MIC,[1]; [10],125 µM
same,IC50,[2]; [11],0.04 ± 0.01 µM
same,IC50,[2]; [12],0.02 ± 0.001 µM
same,IC50,[3]; [13],> 100 µM
same,IC50,[4]; [14],2.8 ± 0.1 µM
same,IC50,[5]; footnote **,1.6 ± 0.2 µM
same,IC50,[6]; footnote **,33.5 ± 1.7 µM
same,IC50,[7]; footnote **,> 10 µM
same,IC50,[8]; [15],> 100 µM
same,MIC,[9]; [16],15 µM
same,antibacterial activity against S. aureus ATCC 29213,[9],modest antibacterial activities
CCCCCCCCCCN(CCCCCCCCCC)C(=O)CN=C1OCC2C(O)C(O)C(O)CN12 (stereo not shown) [Compound 2],MIC,[1]; [10],> 500 µM
same,IC50,[2]; [17],0.01 ± 0.001 µM
same,IC50,[2]; [18],0.002 ± 0.001 µM
same,IC50,[3]; [19],> 100 µM
same,IC50,[4]; [20],> 100 µM
same,IC50,[5]; footnote *,0.9 ± 0.1 µM
same,IC50,[6]; footnote *,0.5 ± 0.01 µM
same,IC50,[7]; footnote *,> 10 µM
same,IC50,[8]; [21],> 100 µM
same,MIC,[9]; [16],125 µM
same,antibacterial activity against S. aureus ATCC 29213,[9],modest antibacterial activities
CCCCCCCCNC(=N)N1CC(O)C(O)C(O)C1 (stereo not shown) [Compound 15],IC50,[2]; [11],0.99 ± 0.09 µM
same,IC50,[2]; [12],0.24 ± 0.02 µM
same,IC50,[3]; [13],> 100 µM
same,IC50,[4]; [14],38.1 ± 1.5 µM
same,IC50,[5]; footnote **,< 0.1 µM
same,IC50,[6]; footnote **,53 ± 2.2 µM
same,IC50,[7]; footnote **,> 10 µM
same,IC50,[8]; [15],> 100 µM
CCCCCCCCN=C1OCC2C(O)C(O)C(O)CN12 (stereo not shown) [Compound 12],IC50,[2]; [17],0.1 ± 0.01 µM
same,IC50,[2]; [18],0.02 ± 0.001 µM
same,IC50,[3]; [19],> 100 µM
same,IC50,[4]; [20],5.7 ± 0.4 µM
same,IC50,[5]; footnote *,0.4 ± 0.01 µM
same,IC50,[6]; footnote *,0.1 ± 0.01 µM
same,IC50,[7]; footnote *,> 10 µM
same,IC50,[8]; [21],> 100 µM
CCCCCCCCNC(=O)N1CC(O)C(O)C(O)C1 (stereo not shown) [Compound 7],MIC,[1]; [10],> 500 µM
same,IC50,[2]; [11],> 10 µM
same,IC50,[2]; [12],> 10 µM
same,IC50,[3]; [13],> 100 µM
same,IC50,[4]; [14],> 100 µM
same,IC50,[5]; footnote **,19.6 ± 1.5 µM
same,IC50,[6]; footnote **,> 100 µM
same,IC50,[7]; footnote **,> 10 µM
same,IC50,[8]; [15],> 100 µM
same,MIC,[9]; [16],125 µM
same,antibacterial activity against S. aureus ATCC 29213,[9],modest antibacterial activities
CCCCCCCCCCN=C1OCC2C(O)C(O)C(O)CN12 (stereo not shown) [Compound 13],IC50,[2]; [17],0.02 ± 0.001 µM
same,IC50,[2]; [18],0.001 ± 0.001 µM
same,IC50,[3]; [19],> 100 µM
same,IC50,[4]; [20],2.1 ± 0.1 µM
same,IC50,[5]; footnote *,0.1 ± 0.01 µM
same,IC50,[6]; footnote *,0.01 ± 0.01 µM
same,IC50,[7]; footnote *,> 10 µM
same,IC50,[8]; [21],> 100 µM
CCCCCCCCCCCCCCNC(=O)N1CC(O)C(O)C(O)C1 (stereo not shown) [Compound 10],MIC,[1]; [10],> 500 µM
same,IC50,[2]; [11],> 10 µM
same,IC50,[2]; [12],> 10 µM
same,IC50,[3]; [13],> 100 µM
same,IC50,[4]; [14],> 100 µM
same,IC50,[5]; footnote **,34.2 ± 1.9 µM
same,IC50,[6]; footnote **,> 100 µM
same,IC50,[7]; footnote **,> 10 µM
same,IC50,[8]; [15],> 100 µM
same,MIC,[9]; [16],> 500 µM
"CCCCCCCCCN1C[C@H](O)[C@@H](O)[C@H](O)[C@H]1CO [NN-DNJ, reference compound]",IC50,[3]; [13],> 100 µM
same,IC50,[3]; [22],> 30 µM
same,IC50,[3]; [19],> 100 µM
same,IC50,[4]; [14],> 100 µM
same,IC50,[4]; [23],> 30 µM
same,IC50,[4]; [20],> 100 µM
same,IC50,[5]; footnote ***,> 30 µM
same,IC50,[5]; footnote **,> 100 µM
same,IC50,[5]; footnote *,> 100 µM
same,IC50,[6]; footnote ***,0.1 ± 0.01 µM
same,IC50,[6]; footnote **,0.2 ± 0.01 µM
same,IC50,[6]; footnote *,0.1 ± 0.01 µM
same,IC50,[7]; footnote ***,> 30 µM
same,IC50,[7]; footnote **,> 10 µM
same,IC50,[7]; footnote *,> 10 µM
same,IC50,[8]; [15],> 100 µM
same,IC50,[8]; [24],> 30 µM
same,IC50,[8]; [21],> 100 µM
CCCCOC1OCC(CNC(=N)N2CC(O)C(O)C(O)C2)O1 (stereo not shown) [Compound 11],MIC,[1]; [10],> 500 µM
same,IC50,[2]; [25],> 30 µM
same,IC50,[2]; [26],2.56 ± 0.233 µM
same,IC50,[3]; [22],> 30 µM
same,IC50,[4]; [23],19.2 ± 0.5 µM
same,IC50,[5]; footnote ***,> 30 µM
same,IC50,[6]; footnote ***,> 30 µM
same,IC50,[7]; footnote ***,> 30 µM
same,IC50,[8]; [24],> 30 µM
same,MIC,[9]; [16],> 500 µM
CCCCCCCCCCCCNC(=O)N1CC(O)C(O)C(O)C1 (stereo not shown) [Compound 9],MIC,[1]; [10],> 500 µM
same,IC50,[2]; [11],> 10 µM
same,IC50,[2]; [12],> 10 µM
same,IC50,[3]; [13],> 100 µM
same,IC50,[4]; [14],> 100 µM
same,IC50,[5]; footnote **,12.9 ± 1.9 µM
same,IC50,[6]; footnote **,> 100 µM
same,IC50,[7]; footnote **,> 10 µM
same,IC50,[8]; [15],> 100 µM
same,MIC,[9]; [16],250 µM
same,antibacterial activity against S. aureus ATCC 29213,[9],modest antibacterial activities
"CN(C)[C@@H]1C(O)=C(C(N)=O)C(=O)[C@@]2(O)C(O)=C3C(=O)c4c(O)cccc4[C@@](C)(O)[C@H]3C[C@@H]12 [Tetracycline, reference compound]",MIC,"[1]; positive control on every assay plate, read-out: MIC E. coli",1 µg/mL
same,MIC,"[9]; positive control on every assay plate, read-out: MIC S. aureus",0.5 µg/mL
CCCCCCCCCCCCN=C1OCC2C(O)C(O)C(O)CN12 (stereo not shown) [Compound 14],IC50,[2]; [17],0.01 ± 0.001 µM
same,IC50,[2]; [18],0.001 ± 0.001 µM
same,IC50,[3]; [19],> 100 µM
same,IC50,[4]; [20],1.6 ± 0.1 µM
same,IC50,[5]; footnote *,< 0.1 µM
same,IC50,[6]; footnote *,0.1 ± 0.01 µM
same,IC50,[7]; footnote *,> 10 µM
same,IC50,[8]; [21],> 100 µM
CCCCCCCCOC1OCC(CNC(=N)N2CC(O)C(O)C(O)C2)O1 (stereo not shown) [Compound 17],IC50,[2]; [25],> 30 µM
same,IC50,[2]; [26],0.03 ± 0.01 µM
same,IC50,[3]; [22],> 30 µM
same,IC50,[4]; [23],14.6 ± 0.6 µM
same,IC50,[5]; footnote ***,> 30 µM
same,IC50,[6]; footnote ***,> 30 µM
same,IC50,[7]; footnote ***,> 30 µM
same,IC50,[8]; [24],> 30 µM
CCCCCCCCCCCCNC(=N)N1CC(O)C(O)C(O)C1 (stereo not shown) [Compound 4],MIC,[1]; [10],500 µM
same,IC50,[2]; [11],0.04 ± 0.01 µM
same,IC50,[2]; [12],0.02 ± 0.001 µM
same,IC50,[3]; [13],> 100 µM
same,IC50,[4]; [14],10.7 ± 0.3 µM
same,IC50,[5]; footnote **,0.7 ± 0.1 µM
same,IC50,[6]; footnote **,37.2 ± 1.7 µM
same,IC50,[7]; footnote **,> 10 µM
same,IC50,[8]; [15],> 100 µM
same,MIC,[9]; [16],62.5 µM
same,antibacterial activity against S. aureus ATCC 29213,[9],modest antibacterial activities
CCCCCCCCCCN(CCCCCCCCCC)C(=O)CNC(=O)N1CC(O)C(O)C(O)C1 (stereo not shown) [Compound 16],IC50,[2]; [11],> 10 µM
same,IC50,[2]; [12],> 10 µM
same,IC50,[3]; [13],> 100 µM
same,IC50,[4]; [14],> 100 µM
same,IC50,[5]; footnote **,12.5 ± 2.9 µM
same,IC50,[6]; footnote **,> 100 µM
same,IC50,[7]; footnote **,> 10 µM
same,IC50,[8]; [15],> 100 µM
